Laboratory results as given in patent US20250296971A1, “GASTRIC INHIBITORY PEPTIDE RECEPTOR LIGANDS” (priority 2021, published 2025).
Where two headings read alike, the source gives them in different places. *1 amine or outer side, *2 acyl side, *3 side chain or, on linkers, in order; H or OH if unused. Where a SMILES comes first, the peptide text is derived from it. Bridges are numbered along the chain shown (N, C = ends). [ ]: non-standard residue; d: D form. The star is where a group is joined. X13 = O=C(CN1CCN2CCN3CCN(CC1)CC(=O)[O][Lu]([O]C(=O)C2)[O]C(=O)C3)NCCCOCCOCCOCCCN*; X8 = O=C(O)CN1CCN(CC(=O)O)CCN(CC(=O)N2CCN(*)CC2)CCN(CC(=O)O)CC1; Trp(5-Cl) = N[C@@H](Cc1c[nH]c2ccc(Cl)cc12)C(=O)O; Pyridine(2,6-diCH2) = c1cc(C[*:1])nc(C[*:2])c1; X7 = c1cc(CSCCN[*:2])cc(C[*:1])c1; Hyp = O=C(O)[C@@H]1C[C@@H](O)CN1; Suc = O=C(CCC(=O)[*:2])[*:1]; Thp = NC1(C(=O)O)CCOCC1; Aib = CC(C)(N)C(=O)O

Experiments:
[1] = molecular target: T1, GIPR (CHO-K1-hGIPR cells) (Homo sapiens, UniProt P48546); experiment: FACS binding assay
T1 construct: host or cells: CHO-K1
T1 sequence (P48546 22-466): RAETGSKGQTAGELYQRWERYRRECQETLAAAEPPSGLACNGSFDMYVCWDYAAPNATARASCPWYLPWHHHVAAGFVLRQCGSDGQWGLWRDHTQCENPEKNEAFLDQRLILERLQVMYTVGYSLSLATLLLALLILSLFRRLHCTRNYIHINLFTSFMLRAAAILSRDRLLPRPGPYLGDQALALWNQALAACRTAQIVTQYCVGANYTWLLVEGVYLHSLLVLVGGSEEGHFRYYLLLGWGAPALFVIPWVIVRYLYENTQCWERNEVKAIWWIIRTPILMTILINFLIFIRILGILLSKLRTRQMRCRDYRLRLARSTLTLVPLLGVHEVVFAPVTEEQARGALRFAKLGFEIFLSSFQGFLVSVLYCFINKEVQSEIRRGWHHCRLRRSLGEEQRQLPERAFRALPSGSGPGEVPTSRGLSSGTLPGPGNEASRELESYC
In short: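 Read-out: flow cytometric median fluorescence intensity, APC/Cy5 channel, plotted vs peptide conc.; 4PL fit → EC50/pEC50 or IC50/pIC50. Cells: CHO-K1-hGIPR, Accutase-detached, 500.000/mL in PBS + 1% FCS. Detection: APC-streptavidin 1 μg/mL, 30 min, on ice.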

[2] = molecular target: T2, human GIP receptor (bioGIPR) (Homo sapiens, UniProt P48546); experiment: Surface plasmon resonance (SPR) based binding assay; settings: for t1/2 Category: SPR dissociation half-life
T2 construct: Biotinylate extracellular of the human GIP receptor (bioGIPR, Proteros biostructures GmbH, lot #02/2b); purchased Proteros biostructures GmbH lot #02/2b
T2 sequence (P48546 22-138 limits assumed): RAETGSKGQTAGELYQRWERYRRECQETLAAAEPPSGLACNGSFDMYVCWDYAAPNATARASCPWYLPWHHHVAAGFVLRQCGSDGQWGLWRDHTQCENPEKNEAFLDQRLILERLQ
In short: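 Binding was measured at 25 °C by single-cycle kinetics against a reference flow cell, with blank-run and drift correction, after capturing biotinylated GIPR extracellular domain to ~3500 RU. Running buffer: HBST, 0.1% DMSO. A 1:1 Langmuir model gave kinetic rates, KD, t1/2 and pKD.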

[3] = competition with 20 nM GIP-057, 4° C., 1 hour, read-out: pIC50 Category (converted)
[4] = Single Cycle Kinetic mode, 25° C.
[5] = SPR, Single Cycle Kinetic mode, 25° C., 1:1 Langmuir binding model, read-out: pKD Category (converted)

IC50 [1, 3]	t1/2 Category [2, 4]	Kd [2, 5]	IC50 ([1]; competition with 20 nM GIP-057, 4° C. for 1 hour, read-out: pIC50 Category (converted))	Structure (SMILES)	IC50 ([1]; pIC50 Category, competition with 20 nM GIP-057, 4° C., 1 hour)	Kd [2]
< 10 nM	A (t1/2 values>15 min)	< 1 nM	–	CC[C@H](C)[C@@H]1NC(=O)[C@H](CC(C)C)NC(=O)C2(CCOCC2)NC(=O)[C@@H](NC(=O)[C@@H](CC(C)C)NC(=O)[C@H](CCC(=O)O)NC(=O)[C@@H]2C[C@@H](O)CN2C(=O)[C@H](Cc2c[nH]c3ccc(Cl)cc23)NC(=O)[C@H](Cc2c[nH]c3ccccc23)NC(=O)CCC(=O)O)CSCc2cccc(n2)CSC[C@@H](C(=O)N2CCN(C(=O)CN3CCN(CC(=O)O)CCN(CC(=O)O)CCN(CC(=O)O)CC3)CC2)NC1=O [GIP-118, HO-Succinyl-Trp-5Clw-Hyp-Glu-leu-[Cys(2Lut)-Thp-Leu-Ile-Cys]-PP-DOTA] (Suc-W[Trp(5-Cl)][Hyp]E[dL]C[Thp]LIC-X8; linker 6-10 via Pyridine(2,6-diCH2))	–	–
–	A (t1/2 values>15 min)	1 to 7.94 nM	< 10 nM	CC[C@H](C)[C@@H]1NC(=O)[C@H](CC(C)C)NC(=O)C2(CCOCC2)NC(=O)[C@@H](NC(=O)[C@@H](CC(C)C)NC(=O)[C@H](CCCNC(=N)N)NC(=O)[C@@H]2C[C@@H](O)CN2C(=O)[C@H](Cc2c[nH]c3ccc(Cl)cc23)NC(=O)[C@H](Cc2c[nH]c3ccccc23)NC(=O)[C@H](CC(=O)O)NC(C)=O)CSCc2cccc(n2)CSC[C@@H](C(N)=O)NC1=O [GIP-376, Ac-Asp-Trp-5Clw-Hyp-Arg-leu-[Cys(2Lut)-Thp-Leu-Ile-Cys]-NH2] (Ac-DW[Trp(5-Cl)][Hyp]R[dL]C[Thp]LIC-NH2; linker 7-11 via Pyridine(2,6-diCH2))	–	–
< 10 nM	A (t1/2 values>15 min)	< 1 nM	–	CC[C@H](C)[C@@H]1NC(=O)[C@H](CC(C)C)NC(=O)C2(CCNCC2)NC(=O)[C@@H](NC(=O)[C@@H](CC(C)C)NC(=O)[C@H](CCC(=O)O)NC(=O)[C@@H]2C[C@@H](N)CN2C(=O)[C@H](Cc2c[nH]c3ccc(Cl)cc23)NC(=O)[C@H](Cc2c[nH]c3ccccc23)NC(=O)[C@H](CC(=O)O)NC(=O)CCC(=O)NCCCOCCOCCOCCCNC(=O)CN2CCN(CC(=O)O)CCN(CC(=O)O)CCN(CC(=O)O)CC2)CNCc2cccc(n2)CSCCNC1=O [GIP-113, DOTA-Ttds-Asp-Trp-5Clw-Tap-Glu-leu-[Dap(2Lut)-Apc-Leu-Ile-AET]]	–	–

Structure (SMILES)	IC50 [1, 3]	t1/2 Category [2, 4]	Kd [2, 5]	IC50 ([1]; competition with 20 nM GIP-057, 4° C. for 1 hour, read-out: pIC50 Category (converted))	IC50 ([1]; pIC50 Category, competition with 20 nM GIP-057, 4° C., 1 hour)	Kd [2]
CC[C@H](C)[C@@H]1NC(=O)[C@H](CC(C)C)NC(=O)C(C)(C)NC(=O)[C@@H](NC(=O)[C@@H](CC(C)C)NC(=O)[C@H](CCC(=O)O)NC(=O)[C@@H]2CCCN2C(=O)[C@H](Cc2c[nH]c3ccc(Cl)cc23)NC(=O)[C@H](Cc2c[nH]c3ccccc23)NC(=O)[C@H](CC(=O)O)NC(=O)CCC(=O)NCCCOCCOCCOCCCNC(=O)CN2CCN3CCN4CCN(CC2)CC(=O)[O][Lu]([O]C(=O)C3)[O]C(=O)C4)CSCc2cccc(c2)CSCCNC1=O [GIP-167, LuDOTA-Ttds-Asp-Trp-5Clw-Pro-Glu-leu-[Cys(3MeBn)-Aib-Leu-Ile-AET]] ({X13-Suc}-DW[Trp(5-Cl)]PE[dL]C[Aib]LI; linker 7-C via X7)	–	A (t1/2 values>15 min)	–	–	< 10 nM	< 1 nM
